Measurements as given in patent US6294562A, “Salts of ethyl 3-(2-(4-(4-amino-imino-methyl)phenyl)-4-methyl-2,5-dioxo-imidazolidin-1-yl )acetylamino)-3-phenylpropionate” (Hoechst Aktiengesellschaft, priority 1996, dated 2001).

What was measured:
[1] = test system: ADP-induced ex vivo platelet aggregation; assay: Ex vivo platelet aggregation inhibition in dogs, ADP-induced; set-up: species or system dog; conditions: for Inhibition of aggregation: ADP
Procedure: Dogs of either sex (mixed breed of Labrador/Harrier, body weight 21-28 kg) were fasted overnight. The test compounds were administered orally in gelatine capsules or intravenously. Before administration of the test compounds and several times during 24 hours thereafter, 20 ml of blood were withdrawn from the cephalic vein into acid citrate dextrose (9+1volumes). Platelet rich plasma (PRP) was obtained by centrifugation. Platelet aggregation was measured in PRP after addition of either ADP (3-30 μmol/l) or collagen (0.3-10 μg/ml) plus epinephrine (10 μM) at 37° C. in an aggregometer (BioData). Percent of maximal aggregation before and after drug administration was compared. The percent inhibition of aggregation at the lowest concentration of the agonist which induced irreversible maximal aggregation is given. In addition, the cutaneous bleeding time was measured at the shaved inner forearm using the Simplate® 1 device at the times of blood collection. Percent prolongation of bleeding time after drug administration as compared to the predrug value is calculated.
When ethyl (S)-3-(2-( (S)-4-(4-(amino-imino-methyl) phenyl)-4-methyl-2,5-dioxoimidazolidin-1-yl)acetylamino)-3-phenylpropionate hydrogen maleate was examined the following results were obtained. Given is the percent inhibition of platelet aggregation 1 h, 4 h, 8 h and 24 h after administration of the test substance. The dose is given in mg per kg body weight. n is the number of dogs tested.

[2] = test system: coronary cyclic flow variations (recurrent formation of platelet rich thrombi); assay: Coronary cyclic flow variations in dogs (model of unstable angina); format: in vivo, dog
Source text: (§1) Dogs of either sex (20-35 kg) were anesthetized (Ketamine plus sodium pentobarbital infusion), ventilated and instrumented for the measurement of hemodynamic parameters (peripheral and left ventricular blood pressure, myocardial contractility, heart rate), and ECG. Blood gases and hematocrit were kept constant by infusion of electrolytes. After a left thoracotomy, the heart was exposed and the left circumflex coronary artery (LCX) was instrumented with an electromagnetic flow probe to measure mean coronary blood flow. Distal to the flow probe, the LCX was shortly squeezed with forceps in order to damage the endothelium, and a small concentrically constricting plastic cylinder was placed onto the damaged site (between 1.0 and 1.7 mm inner diameter, depending on the size of the LCX, and 4 mm length). The constrictor abolished the reactive hyperemic response to a 10 second occlusion of the LCX and initiated the appearance of flow cycles (approx. 10 per hour) resulting from recurrent formation of platelet rich thrombi at the stenosed site. After 60 min of regular cyclic flow variations, the test compounds were administered by intravenous or intraduodenal bolus application. Cyclic flow variations were further monitored for at least 2 to 5 hours. Percent inhibition of coronary thrombotic cyclic flow variations was calculated by comparison of the mean number of cyclic flow variations per hour before and after administration of the compound in 5 to 8 animals. In control animals, the number of cyclic flow variations per hour remained constant for several hours. (References: Folts, J. D. et al. (1976), Circulation 54: 365-370; Just, M. et al. (1989), J. Cardiovasc. Pharmacol. 14 (suppl. 11): S 129-136)
When ethyl (S)-3-(2-((S)-4-(4-(amino-imino-methyl)phenyl)-4methyl-2,5-dioxoimidazolidin-1-yl)acetylamino)-3-phenylpropionate hydrogen maleate was examined the following results were obtained. Given is the percent reduction of the number of stenosis induced coronary cyclic flow variations (CFV's) per hour in the first, the second and the third hour after administration of the test compound as compared to the predrug period. The dose is given in mg per kg of body weight.

[3] = Determination of water vapor sorption (automatic two-limbed microbalance, 25° C.); format: physicochemical
Procedure: The water uptake of a substance was determined using an automatic two-limbed microbalance which is operated in vacuo or in an atmosphere which has a defined composition or a defined pressure. The dry sample is located on one side of the balance and a taring weight is located on the other side. A water vapor atmosphere, whose pressure was increased stepwise, was generated in the weighing space. The increase in weight of the sample as a function of the water vapor pressure was recorded. The measurement was carried out at a constant temperature of 25° C.
The weighing space was first of all evacuated to constant weight and the starting weight of the sample was determined. A defined quantity of water vapor was then passed into the evacuated weighing space through an inlet valve. In the experiment which is reproduced below, the water vapor pressure which was set in this first step corresponds, at the measuring temperature of 25° C., to a relative atmospheric humidity of 4.7%. When constant weight was once again reached after passing in the water vapor, i.e. when the sample was in equilibrium with the water vapor atmosphere, the increase in weight of the sample was recorded. After that, the water vapor pressure was increased in several steps by passing in further water vapor (with each water vapor pressure corresponding to a defined relative atmospheric humidity at the measuring temperature of 25° C.). In each step, the increase in weight of the sample was recorded after constant weight had been reached. When ethyl (S)-3-(2-((S)-4-(4-(amino-imino-methyl)phenyl)-4-methyl-2,5-dioxo-imidazolidin-1-yl)-acetylamino)-3-phenylpropionate hydrogen maleate was examined, the following weight increases, based on the starting weight of the sample, were observed.

[4] = Hemodynamic parameters in the coronary cyclic flow variation model in dogs; format: in vivo, dog; conditions: all hemodynamic parameters, intravenous or intraduodenal
Source text: as §1, with “After 60 min of regular cyclic flow variations, the test compounds were administered by intravenous or intraduodenal bolus application.” left out, “In control animals, the number of cyclic flow variations per hour remained constant for several hours. (References: Folts, J. D. et al. (1976), Circulation 54: 365-370; Just, M. et al. (1989), J. Cardiovasc. Pharmacol. 14 (suppl. 11): S 129-136)” left out

CCOC(=O)C[C@H](NC(=O)CN1C(=O)N[C@@](C)(c2ccc(C(=N)N)cc2)C1=O)c1ccccc1.O=C(O)/C=C\C(=O)O [Ethyl (S)-3-(2-((S)-4-(4-(amino-imino-methyl)phenyl)-4-methyl-2,5-dioxo-imidazolidin-1-yl)acetylamino)-3-phenylpropionate hydrogen maleate]
Inhibition of aggregation ([1]; 0.5 mg/kg intravenously, n=6, after 1 h): 93% | Inhibition of aggregation ([1]; 0.5 mg/kg intravenously, n=6, after 4 h): 88% | Inhibition of aggregation ([1]; 0.5 mg/kg intravenously, n=6, after 8 h): 59% | Inhibition of aggregation ([1]; 0.5 mg/kg intravenously, n=6, after 24 h): 16% | Inhibition of aggregation ([1]; 0.5 mg/kg orally, n=6, after 1 h): 46% | Inhibition of aggregation ([1]; 0.5 mg/kg orally, n=6, after 4 h): 83% | Inhibition of aggregation ([1]; 0.5 mg/kg orally, n=6, after 8 h): 33% | Inhibition of aggregation ([1]; 0.5 mg/kg orally, n=6, after 24 h): 18% | Inhibition of aggregation ([1]; 1 mg/kg orally, n=6, after 1 h): 76% | Inhibition of aggregation ([1]; 1 mg/kg orally, n=6, after 4 h): 97% | Inhibition of aggregation ([1]; 1 mg/kg orally, n=6, after 8 h): 86% | Inhibition of aggregation ([1]; 1 mg/kg orally, n=6, after 24 h): 70% | Inhibition of aggregation ([1]; 2 mg/kg orally, n=8, after 1 h): 64% | Inhibition of aggregation ([1]; 2 mg/kg orally, n=8, after 4 h): 86% | Inhibition of aggregation ([1]; 2 mg/kg orally, n=8, after 8 h): 78% | Inhibition of aggregation ([1]; 2 mg/kg orally, n=8, after 24 h): 49% | efficacy as inhibitor of platelet aggregation ([1]; in words, ADP- and collagen-induced): pronounced efficacy | Reduction of CFV's ([2]; 0.1 mg/kg intraduodenally, first hour): 39% | Reduction of CFV's ([2]; 0.1 mg/kg intraduodenally, second hour): 62% | Reduction of CFV's ([2]; 0.1 mg/kg intraduodenally, third hour): 74% | Reduction of CFV's ([2]; 0.1 mg/kg intravenously, first hour): 52% | Reduction of CFV's ([2]; 0.1 mg/kg intravenously, second hour): 81% | Reduction of CFV's ([2]; 0.1 mg/kg intravenously, third hour): 89% | Reduction of CFV's ([2]; 0.2 mg/kg intravenously, first hour): 75% | Reduction of CFV's ([2]; 0.2 mg/kg intravenously, second hour): 96% | Reduction of CFV's ([2]; 0.2 mg/kg intravenously, third hour): 99% | Reduction of CFV's ([2]; 0.3 mg/kg intraduodenally, first hour): 23% | Reduction of CFV's ([2]; 0.3 mg/kg intraduodenally, second hour): 66% | Reduction of CFV's ([2]; 0.3 mg/kg intraduodenally, third hour): 78% | antithrombotic activity ([2]; dog, in vivo): powerful antithrombotic activity | hygroscopicity ([3]; 25° C.): not hygroscopic | increase in weight ([3]; relative atmospheric humidity of approx. 80%): approx. 0.5% | Increase in weight of the sample ([3]; relative humidity 4.7%, 25° C.): 0.06% | Increase in weight of the sample ([3]; relative humidity 18.5%, 25° C.): 0.11% | Increase in weight of the sample ([3]; relative humidity 32.8%, 25° C.): 0.16% | Increase in weight of the sample ([3]; relative humidity 49.6%, 25° C.): 0.23% | Increase in weight of the sample ([3]; relative humidity 64.7%, 25° C.): 0.33% | Increase in weight of the sample ([3]; relative humidity 75.5%, 25° C.): 0.43% | Increase in weight of the sample ([3]; relative humidity 82.1%, 25° C.): 0.54% | hemodynamic parameters recorded during the test [4]: not significantly changed
